Experimental data published in ChEMBL document CHEMBL4342462, “Discovery and Characterization of 2,5-Substituted Benzoic Acid Dual Inhibitors of the Anti-apoptotic Mcl-1 and Bfl-1 Proteins” (J Med Chem, 2020).
Calls of active or inactive are those of the source. No cut-off for these calls is given here.

Assays:
Bcl-2-related protein A1 [1] = target: T1, Bcl-2-related protein A1 (Homo sapiens, UniProt Q16548)
T1 sequence (Q16548 whole entry): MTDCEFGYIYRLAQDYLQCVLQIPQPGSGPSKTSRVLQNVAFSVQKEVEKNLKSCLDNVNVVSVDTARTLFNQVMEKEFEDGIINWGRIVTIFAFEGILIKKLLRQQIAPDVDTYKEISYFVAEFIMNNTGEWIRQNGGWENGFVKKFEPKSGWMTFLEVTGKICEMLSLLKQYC

[2] = target: T2, Induced myeloid leukemia cell differentiation protein Mcl-1 (Homo sapiens, UniProt Q07820)
T2 sequence (Q07820 whole entry): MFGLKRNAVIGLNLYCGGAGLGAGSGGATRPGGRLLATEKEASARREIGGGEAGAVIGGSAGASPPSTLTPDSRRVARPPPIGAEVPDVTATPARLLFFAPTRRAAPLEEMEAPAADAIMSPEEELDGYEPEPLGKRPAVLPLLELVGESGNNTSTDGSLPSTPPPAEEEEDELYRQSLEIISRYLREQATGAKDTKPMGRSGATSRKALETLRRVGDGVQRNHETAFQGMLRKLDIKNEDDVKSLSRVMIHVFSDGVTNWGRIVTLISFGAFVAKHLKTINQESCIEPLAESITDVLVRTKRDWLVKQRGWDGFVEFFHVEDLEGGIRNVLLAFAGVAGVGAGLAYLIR
Description: Inhibition of N-terminal His6-tagged human Mcl1 expressed in Escherichia coli Rosetta2 DE3 by fluorescent labeled Flu-Bid peptide based fluorescence polarization assay

Bcl-2-like protein 1 [3] = target: T3, Bcl-2-like protein 1 (Homo sapiens, UniProt Q07817)
T3 sequence (Q07817 whole entry): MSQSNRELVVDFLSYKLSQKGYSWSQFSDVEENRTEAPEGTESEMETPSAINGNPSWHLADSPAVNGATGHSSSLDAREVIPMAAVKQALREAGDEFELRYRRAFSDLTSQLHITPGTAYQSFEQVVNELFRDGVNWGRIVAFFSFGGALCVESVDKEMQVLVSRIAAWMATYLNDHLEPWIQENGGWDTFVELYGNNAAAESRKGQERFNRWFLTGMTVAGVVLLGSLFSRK

[4] = target: T4, Apoptosis regulator Bcl-2 (Homo sapiens, UniProt P10415); assay: Inhibition of Bcl2 (unknown origin) expressed in Eu-Myc cells assessed as induction of cell death at 75 to 100 uM incubated for 24 hrs by violet LIVE/DEAD fixable dead cell staining based flow cytometry
T4 sequence (P10415 whole entry): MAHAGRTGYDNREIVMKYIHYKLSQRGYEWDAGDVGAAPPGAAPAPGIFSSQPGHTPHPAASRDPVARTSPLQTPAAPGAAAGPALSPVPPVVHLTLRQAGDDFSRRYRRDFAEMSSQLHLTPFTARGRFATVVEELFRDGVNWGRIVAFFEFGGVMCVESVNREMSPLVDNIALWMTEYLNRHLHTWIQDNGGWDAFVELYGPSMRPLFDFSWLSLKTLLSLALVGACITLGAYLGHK

[5] = target: T4, Apoptosis regulator Bcl-2
[6] = target: T5, Bcl-2-related protein A1 (Homo sapiens) (UniProt Q16548)
T5 sequence (whole entry): T1 sequence (Q16548 whole entry)

Bcl-2-related protein A1 [7] = target: T1, Bcl-2-related protein A1; remark: listed apart in the source
[8] = target: T2, Induced myeloid leukemia cell differentiation protein Mcl-1; remark: listed apart in the source
Description: Binding affinity to immobilized biotin-labeled and N-terminal His6-tagged human Mcl-1 expressed in Escherichia coli Rosetta2 DE3 by biolayer interferometry

Bcl-2-like protein 1 [9] = target: T3, Bcl-2-like protein 1; assay: Inhibition of Bcl-xL (unknown origin) expressed in Eu-Myc cells assessed as induction of cell death at 75 to 100 uM incubated for 24 hrs by violet LIVE/DEAD fixable dead cell staining based flow cytometry

O=C(CCSc1ccc(NS(=O)(=O)c2ccccc2)c(C(=O)O)c1)Nc1ccccc1
Ki (Bcl-2-related protein A1 [1]): 14.8 µM | Ki [2]: 13.1 µM

O=C(CCCSc1ccc(NS(=O)(=O)c2ccccc2)c(C(=O)O)c1)Nc1ccccc1
Ki (Bcl-2-related protein A1 [1]): > 70 µM | Ki [2]: 32.8 µM

O=C(O)c1cc(SCCc2ccccc2)ccc1NS(=O)(=O)c1cccs1
Ki (Bcl-2-related protein A1 [1]): 3.4 µM | Ki [2]: 2 µM

CC(C)(C)c1ccc(N2CCN(S(=O)(=O)Nc3ccc(SCCC(=O)Nc4ccccc4)cc3C(=O)O)CC2)cc1
Ki (Bcl-2-related protein A1 [1]): 1.1 µM | Ki [2]: 0.95 µM | Ki (Bcl-2-like protein 1 [3]): > 25 µM

O=C(O)c1cc(SCCc2ccccc2)ccc1NS(=O)(=O)c1ccc(C2CCCCC2)cc1
Ki (Bcl-2-related protein A1 [1]): 0.17 µM | Ki [2]: 0.087 µM

O=C(O)c1cc(SCCc2ccccc2)ccc1NS(=O)(=O)c1ccc(Br)cc1
Ki (Bcl-2-related protein A1 [1]): 0.81 µM | Ki [2]: 0.81 µM

CC(C)(C)c1ccc(N2CCN(S(=O)(=O)Nc3ccc(SCCc4cccc(O)c4)cc3C(=O)O)CC2)cc1
Ki (Bcl-2-related protein A1 [1]): 0.25 µM | Ki [2]: 0.29 µM

CC(C)(C)c1ccc(N2CCN(S(=O)(=O)Nc3ccc(SCCc4ccccc4)cc3C(=O)O)CC2)cc1
Ki (Bcl-2-related protein A1 [1]): 0.084 µM | Ki [2]: 0.073 µM | inhibition [4]: Active | Ki [5]: 1.2 µM | Ki (Bcl-2-like protein 1 [3]): 3.5 µM | Activity [6]: Active | Kd (Bcl-2-related protein A1 [7]): 0.92 µM | Kd [8]: 0.49 µM | inhibition (Bcl-2-like protein 1 [9]): Active

O=C(CCc1ccccc1)Nc1ccc(NS(=O)(=O)c2ccccc2)c(C(=O)O)c1
Ki (Bcl-2-related protein A1 [1]): 62 µM | Ki [2]: 19 µM

O=C(Nc1ccc(SCCc2ccccc2)cc1C(=O)O)c1ccccc1
Ki (Bcl-2-related protein A1 [1]): 4.6 µM | Ki [2]: 2.7 µM

O=C(O)c1cc(OCCc2ccccc2)ccc1NS(=O)(=O)c1ccccc1
Ki (Bcl-2-related protein A1 [1]): 10.6 µM | Ki [2]: 6.1 µM

O=C(O)c1cc(SCCc2ccccc2)ccc1NS(=O)(=O)c1ccccc1
Ki (Bcl-2-related protein A1 [1]): 1.6 µM | Ki [2]: 1.5 µM | Ki [5]: > 25 µM | Ki (Bcl-2-like protein 1 [3]): > 25 µM

O=C(O)c1cc(SCCc2ccccc2)ccc1NS(=O)(=O)N1CCN(c2ccccc2)CC1
Ki (Bcl-2-related protein A1 [1]): 0.76 µM | Ki [2]: 0.57 µM | Ki [5]: 11.7 µM | Ki (Bcl-2-like protein 1 [3]): 6.6 µM

O=C(O)c1cc(SCCc2ccccc2)ccc1NS(=O)(=O)c1ccc(-c2ccccc2)nc1
Ki (Bcl-2-related protein A1 [1]): 0.28 µM | Ki [2]: 0.2 µM

O=C(O)c1cc(NCCc2ccccc2)ccc1NS(=O)(=O)c1ccccc1
Ki (Bcl-2-related protein A1 [1]): 3.8 µM | Ki [2]: 4.7 µM

O=C(O)c1cc(SCCc2ccccc2)ccc1NS(=O)(=O)c1ccc(-c2ccccc2)cc1
Ki (Bcl-2-related protein A1 [1]): 0.15 µM | Ki [2]: 0.09 µM

O=C(O)c1cc(SCCc2ccccc2)ccc1NS(=O)(=O)CCc1ccccc1
Ki (Bcl-2-related protein A1 [1]): 1.7 µM | Ki [2]: 1.7 µM

O=C(O)c1cc(SCCc2ccccc2)ccc1NS(=O)(=O)N1CCN(Cc2ccccc2)CC1
Ki (Bcl-2-related protein A1 [1]): 1 µM | Ki [2]: 0.84 µM

Nc1ccc(SCCc2ccccc2)cc1C(=O)O
Ki (Bcl-2-related protein A1 [1]): 3.7 µM | Ki [2]: 3.4 µM

O=C(O)c1cc(SCc2ccccc2)ccc1NS(=O)(=O)c1ccccc1
Ki (Bcl-2-related protein A1 [1]): 3 µM | Ki [2]: 2.6 µM

O=C(Cc1ccccc1)Nc1ccc(NS(=O)(=O)c2ccccc2)c(C(=O)O)c1
Ki (Bcl-2-related protein A1 [1]): > 70 µM | Ki [2]: 70.4 µM

O=C(O)c1cc(SCCc2ccccc2)ccc1NS(=O)(=O)N1CCC(c2ccccc2)CC1
Ki (Bcl-2-related protein A1 [1]): 0.39 µM | Ki [2]: 0.33 µM

O=C(O)c1ccccc1NS(=O)(=O)c1ccccc1
Ki (Bcl-2-related protein A1 [1]): > 100 µM | Ki [2]: 47.8 µM

COc1cccc(CCSc2ccc(NS(=O)(=O)N3CCN(c4ccc(C(C)(C)C)cc4)CC3)c(C(=O)O)c2)c1
Ki (Bcl-2-related protein A1 [1]): 0.1 µM | Ki [2]: 0.074 µM | Ki [5]: 1.2 µM | Ki (Bcl-2-like protein 1 [3]): 6.7 µM
